SMILES strings stand for the structures.

This experiment relates to H460 cells. Briefly: Proliferation assay in H460 cells (2 hr exposure, AlamarBlue). The class given is cell-based, human. The settings on record: Homo sapiens, NCI-H460, 2 hrs exposure, wash, 70 hrs growth, read-out: IC 50 in proliferation assay in H460 cells. Here is the method: In vitro proliferation data on the H460 […] human tumor cell line is reported above in the compound table.
Specifically, exponentially growing cells were seeded at a density of 4×10^3 cells per well in a 96 well plate and incubated at 37° C. in 5% CO2, 95% air and 100% relative humidity for 24 hours prior to addition of test compounds. Compounds were solubilized in 100% DMSO at 200 times the desired final test concentration. At the time of drug addition, compounds were further diluted to 4 times the desired final concentration with complete medium. Aliquots of 50 μl of compound at specified concentrations were added to microtiter wells already containing 150 μl of medium, resulting in the final drug concentration reported. After drug addition, the plates were incubated for an additional 2 hours at 37° C., 5% CO2, 95% air, and 100% relative humidity, then the drug was washed off and fresh medium was added and the plates were incubated for addition 70 hrs at 37° C., 5% CO2, 95% air and 100% relative humidity. At the end of this incubation, the viable cells were quantified using the AlamarBlue assay. The drug concentration resulting in growth inhibition of 50% (IC50) was calculated using Prism software (Irvine, Calif.), and the results were listed in the table.
For the compound `CC(OP(=O)(N1CC1)N1CC1)c1ccc(Oc2ccccc2)c([N+](=O)[O-])c1` (stereo not shown) [Compound 2906, reference compound], the IC50 was 4000 nM.

For `Cc1ccc(Oc2cc(C(C)OP(=O)(N3CC3)N3CC3)ccc2[N+](=O)[O-])cc1` (stereo not shown) [Compound 3030], the IC50 turned out to be 20 nM.

For the compound `CC(OP(=O)(N1CC1)N1CC1)c1ccc([N+](=O)[O-])c(Oc2cccc(S(C)(=O)=O)c2)c1` (stereo not shown) [Compound 2950], the IC50 stood at 40 nM.

Regarding `CC(OP(=O)(N1CC1)N1CC1)c1ccc([N+](=O)[O-])c(Oc2cccc(C(N)=O)c2)c1` (stereo not shown) [Compound 2924], the IC50 was determined as 100 nM.

Consider `CC(OP(=O)(N1CC1)N1CC1)c1ccc([N+](=O)[O-])c(Oc2ccc3c(c2)ncn3C)c1` (stereo not shown) [Compound 2920], for which the IC50 turned out to be 20 nM.

Consider `CNS(=O)(=O)c1ccc(Oc2cc(COP(=O)(N3CC3)N3CC3)ccc2[N+](=O)[O-])cc1` [Compound 2903], for which the IC50 came out at 30 nM.

Regarding `CC(OP(=O)(N1CC1)N1CC1)c1ccc([N+](=O)[O-])c(Oc2ccccc2-c2ccccc2)c1` (stereo not shown) [Compound 3028], the IC50 turned out to be 700 nM.

On to `CC(OP(=O)(N1CC1)N1CC1)c1ccc([N+](=O)[O-])c(Oc2cnc3ccccc3c2)c1` (stereo not shown) [Compound 2956], for which the IC50 was determined as 4 nM.

For the compound `CN(C(=O)c1ccc(Oc2cc(COP(=O)(N3CC3)N3CC3)ccc2[N+](=O)[O-])cc1)c1ccccc1` [Compound 2974], the IC50 was determined as 1 nM.

In the case of `CCOC(=O)c1ccc(Oc2cc(C(C)OP(=O)(N3CC3)N3CC3)ccc2[N+](=O)[O-])cc1` (stereo not shown) [Compound 2853], the IC50 is less than 5 nM.

Regarding `CC(OP(=O)(N1CC1)N1CC1)c1ccc([N+](=O)[O-])c(Oc2ccc3cccnc3c2)c1` (stereo not shown) [Compound 2957], the IC50 came to 40 nM.

On to `CC(OP(=O)(N1CC1)N1CC1)c1ccc([N+](=O)[O-])c(Oc2cncnc2)c1` (stereo not shown) [Compound 2925], for which the IC50 is 40 nM.

In the case of `CC(C)(C)c1ccc(Oc2cc(COP(=O)(N3CC3)N3CC3)ccc2[N+](=O)[O-])cc1` [Compound 3035], the IC50 stood at 1 nM.

As to `O=[N+]([O-])c1ccc(COP(=O)(N2CC2)N2CC2)cc1Oc1ccc2ocnc2c1` [Compound 2915], the IC50 is 90 nM.

For `CC(OP(=O)(N1CC1)N1CC1)c1ccc([N+](=O)[O-])c(Oc2cccc(-c3ccccc3)c2)c1` (stereo not shown) [Compound 2991], the IC50 came to 6 nM.

With `O=[N+]([O-])c1ccc(COP(=O)(N2CC2)N2CC2)cc1Oc1cccc2ncccc12` [Compound 2967], the IC50 is 100 nM.

For the compound `CNC(=O)c1cccc(Oc2cc(COP(=O)(N3CC3)N3CC3)ccc2[N+](=O)[O-])c1` [Compound 2937], the IC50 was 2 nM.

For `CNC(=O)c1cccc(Oc2cc(C(C)OP(=O)(N3CC3)N3CC3)ccc2[N+](=O)[O-])c1` (stereo not shown) [Compound 2884], the IC50 is 10 nM.

Regarding `Cc1ccccc1-c1ccc(Oc2cc(COP(=O)(N3CC3)N3CC3)ccc2[N+](=O)[O-])cc1` [Compound 3033], the IC50 stood at 1 nM.

Regarding `N#Cc1ccc(Oc2cc(COP(=O)(N3CC3)N3CC3)ccc2[N+](=O)[O-])cc1` [Compound 2927], the IC50 was found to be 3 nM.

Consider `Cc1nc2cc(Oc3cc(COP(=O)(N4CC4)N4CC4)ccc3[N+](=O)[O-])ccc2s1` [Compound 2929], for which the IC50 turned out to be 30 nM.

For the compound `CC(OP(=O)(N1CC1)N1CC1)c1ccc([N+](=O)[O-])c(Oc2ccc(F)cc2F)c1` (stereo not shown) [Compound 2863], the IC50 is 20 nM.

`CC(OP(=O)(N1CC1)N1CC1)c1ccc([N+](=O)[O-])c(Oc2ccc(F)cc2)c1` (stereo not shown) [Compound 2861]: the IC50 amounted to 20 nM.

Turning to `C/C(=N\Oc1cc(C(C)OP(=O)(N2CC2)N2CC2)ccc1[N+](=O)[O-])c1ccccc1` (stereo not shown) [Compound 2961], the IC50 was determined as 2700 nM.

As for `CS(=O)(=O)c1cccc(Oc2cc(COP(=O)(N3CC3)N3CC3)ccc2[N+](=O)[O-])c1` [Compound 2951], the IC50 worked out at 20 nM.

Consider `CC(OP(=O)(N1CC1)N1CC1)c1ccc([N+](=O)[O-])c(Oc2nccs2)c1` (stereo not shown) [Compound 2944], for which the IC50 was greater than 5000 nM.

As to `O=[N+]([O-])c1ccc(COP(=O)(N2CC2)N2CC2)cc1Oc1cccnc1` [Compound 2877], the IC50 amounted to 20 nM.

As for `CC(OP(=O)(N1CC1)N1CC1)c1ccc([N+](=O)[O-])c(Oc2ccc(C(=O)N(C)c3ccccc3)cc2)c1` (stereo not shown) [Compound 2978], the IC50 worked out at 2 nM.

With `O=[N+]([O-])c1ccc(COP(=O)(N2CC2)N2CC2)cc1Oc1ccccn1` [Compound 2875], the IC50 was 3200 nM.

In the case of `CC(OP(=O)(N1CC1)N1CC1)c1ccc([N+](=O)[O-])c(Oc2ccc(-c3nccs3)cc2)c1` (stereo not shown) [Compound 2898], the IC50 came out at 10 nM.

As for `CC(OP(=O)(N1CC1)N1CC1)c1ccc([N+](=O)[O-])c(Oc2cccc(N(C)C)c2)c1` (stereo not shown) [Compound 2855], the IC50 was 30 nM.

With `CC(OP(=O)(N1CC1)N1CC1)c1ccc([N+](=O)[O-])c(Oc2ccc(NS(=O)(=O)C(F)(F)F)cc2)c1` (stereo not shown) [Compound 2913], the IC50 was found to be 70 nM.

`CC(OP(=O)(N1CC1)N1CC1)c1ccc([N+](=O)[O-])c(Oc2ccccc2S(C)(=O)=O)c1` (stereo not shown) [Compound 2980]: the IC50 was 3000 nM.

For the compound `Cc1nc2ccc(Oc3cc(C(C)OP(=O)(N4CC4)N4CC4)ccc3[N+](=O)[O-])cc2s1` (stereo not shown) [Compound 2930], the IC50 is 2 nM.

Regarding `CC(OP(=O)(N1CC1)N1CC1)c1ccc([N+](=O)[O-])c(Oc2ccc(Cl)cc2)c1` (stereo not shown) [Compound 2860], the IC50 is 10 nM.

As for `CCN(CC)C(=O)c1cccc(Oc2cc(C(C)OP(=O)(N3CC3)N3CC3)ccc2[N+](=O)[O-])c1` (stereo not shown) [Compound 2985], the IC50 is 4 nM.

For the compound `O=[N+]([O-])c1ccc(COP(=O)(N2CC2)N2CC2)cc1Oc1ccc(-c2nccs2)cc1` [Compound 2899], the IC50 worked out at 4 nM.

As for `CC(OP(=O)(N1CC1)N1CC1)c1ccc([N+](=O)[O-])c(Oc2ccccc2Cl)c1` (stereo not shown) [Compound 2862], the IC50 is 40 nM.

Regarding `CC(OP(=O)(N1CC1)N1CC1)c1ccc([N+](=O)[O-])c(Oc2ccc(F)nc2)c1` (stereo not shown) [Compound 2893], the IC50 amounted to 20 nM.

As for `CC(OP(=O)(N1CC1)N1CC1)c1ccc([N+](=O)[O-])c(Oc2ccc(S(N)(=O)=O)cc2)c1` (stereo not shown) [Compound 2880], the IC50 came out at 100 nM.

As for `CC(OP(=O)(N1CC1)N1CC1)c1ccc([N+](=O)[O-])c(Oc2ccc(S(=O)(=O)Nc3ccc(F)cc3)cc2)c1` (stereo not shown) [Compound 2916], the IC50 stood at 120 nM.

For `CC(OP(=O)(N1CC1)N1CC1)c1ccc([N+](=O)[O-])c(Oc2ccc3ocnc3c2)c1` (stereo not shown) [Compound 2914], the IC50 came out at 30 nM.

As for `Cn1ncc2ccc(Oc3cc(COP(=O)(N4CC4)N4CC4)ccc3[N+](=O)[O-])cc21` [Compound 2918], the IC50 amounted to 3 nM.

As to `CNC(=O)c1ccc(Oc2cc(COP(=O)(N3CC3)N3CC3)ccc2[N+](=O)[O-])cc1` [Compound 2940], the IC50 is 5 nM.

In the case of `CC(OP(=O)(N1CC1)N1CC1)c1ccc([N+](=O)[O-])c(Oc2ccc3ncsc3c2)c1` (stereo not shown) [Compound 2900], the IC50 was 40 nM.

With `CC(OP(=O)(N1CC1)N1CC1)c1ccc([N+](=O)[O-])c(Oc2ccc(-c3ncco3)cc2)c1` (stereo not shown) [Compound 2904], the IC50 turned out to be 10 nM.

For `CC(OP(=O)(N1CC1)N1CC1)c1ccc([N+](=O)[O-])c(Oc2c(F)cccc2F)c1` (stereo not shown) [Compound 2932], the IC50 was 20 nM.

As to `O=[N+]([O-])c1ccc(COP(=O)(N2CC2)N2CC2)cc1Oc1ccccc1-c1ccccc1` [Compound 3029], the IC50 amounted to 600 nM.

As to `CC(OP(=O)(N1CC1)N1CC1)c1ccc([N+](=O)[O-])c(O/N=C(\C#N)c2ccccc2)c1` (stereo not shown) [Compound 2947], the IC50 is 200 nM.

Turning to `CNC(=O)c1ccc(Oc2cc(C(C)OP(=O)(N3CC3)N3CC3)ccc2[N+](=O)[O-])cc1` (stereo not shown) [Compound 2909], the IC50 is 10 nM.

`O=C(c1cccc(Oc2cc(COP(=O)(N3CC3)N3CC3)ccc2[N+](=O)[O-])c1)N1CCOCC1` [Compound 2973]: the IC50 was determined as 20 nM.

Regarding `CC(OP(=O)(N1CC1)N1CC1)c1ccc([N+](=O)[O-])c(Oc2ccc3c(cnn3C)c2)c1` (stereo not shown) [Compound 2919], the IC50 is 4 nM.

As to `CC(OP(=O)(N1CC1)N1CC1)c1ccc([N+](=O)[O-])c(Oc2cccc(C(=O)N3CCOCC3)c2)c1` (stereo not shown) [Compound 2972], the IC50 stood at 10 nM.

In the case of `CC(OP(=O)(N1CC1)N1CC1)c1ccc([N+](=O)[O-])c(Oc2ccc(C(N)=O)cc2)c1` (stereo not shown) [Compound 2923], the IC50 worked out at 20 nM.

For `CC(OP(=O)(N1CC1)N1CC1)c1ccc([N+](=O)[O-])c(Oc2ccc(Cl)cc2Cl)c1` (stereo not shown) [Compound 2864], the IC50 amounted to 20 nM.

Turning to `CNC(=O)c1ccccc1Oc1cc(C(C)OP(=O)(N2CC2)N2CC2)ccc1[N+](=O)[O-]` (stereo not shown) [Compound 2910], the IC50 turned out to be 3500 nM.

Turning to `CC(OP(=O)(N1CC1)N1CC1)c1ccc([N+](=O)[O-])c(Oc2ccccc2F)c1` (stereo not shown) [Compound 2865], the IC50 is 30 nM.

Regarding `CN(C)C(=O)c1ccc(Oc2cc(COP(=O)(N3CC3)N3CC3)ccc2[N+](=O)[O-])cc1` [Compound 2941], the IC50 was found to be 4 nM.

Take `Cc1ccccc1-c1ccc(Oc2cc(C(C)OP(=O)(N3CC3)N3CC3)ccc2[N+](=O)[O-])cc1` (stereo not shown) [Compound 3032]: the IC50 came out at 3 nM.

As for `N#C/C(=N\Oc1cc(COP(=O)(N2CC2)N2CC2)ccc1[N+](=O)[O-])c1ccccc1` [Compound 2948], the IC50 was 40 nM.

For `CC(OP(=O)(N1CC1)N1CC1)c1ccc([N+](=O)[O-])c(Oc2ccc(S(=O)(=O)N(C)C)cc2)c1` (stereo not shown) [Compound 2881], the IC50 was 30 nM.

The record behind these values is US10766914B2, “DNA alkylating agents” (OBI PHARMA, INC., priority 2015, dated 2020).
